Some test systems named below: A549 NSCLC; HL-60(TB) leukemia; IGROV1 ovarian; HT29 colon; HOP-92 NSCLC; 786-0 renal; SK-MEL-5 melanoma; SK-MEL-2 melanoma; MOLT-4 leukemia.
What all share (test): NCI anticancer screen, dose series, 48 h

These results are taken from PubChem BioAssay (NCI).

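Five compound concentrations were applied to cells in 96-well plates for 48 hours; endpoints were derived by simple linear interpolation of the resulting dose-response curve. GI50 is the concentration that inhibits growth by half. TGI denotes the concentration required for complete inhibition of growth.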

Regarding `Cn1c(=O)c2ccc(-c3ccc(Br)cc3)nc2n(C)c1=O`, the TGI in the test on A549 NSCLC, with HL-60(TB) leukemia, with IGROV1 ovarian, in the test on HT29 colon, with HOP-92 NSCLC and in the test on 786-0 renal was over 100 µM each time. Further, the TGI with SK-MEL-5 melanoma, in the test on SK-MEL-2 melanoma and in the test on MOLT-4 leukemia was over 100 µM in each case.

`Cc1cc(=O)n2c3c(c4c(cc13)c(CO)cc(=O)n4C)OC2`: the TGI is over 100 µM in the test with A549 NSCLC; over 100 µM with IGROV1 ovarian; over 100 µM with HT29 colon; 97.1 µM in the test on HOP-92 NSCLC; over 100 µM in the test with 786-0 renal; 75.3 µM in the test with SK-MEL-5 melanoma. This compound also gave a TGI in the test on SK-MEL-2 melanoma of 25.1 µM.

Regarding `O=C(N/C(=C\c1ccc(/C=C(\NC(=O)c2ccccc2)c2nc3cc(Cl)ccc3[nH]2)cc1)c1nc2cc(Cl)ccc2[nH]1)c1ccccc1`, the TGI is over 100 µM with A549 NSCLC; over 100 µM with IGROV1 ovarian; over 100 µM in the test with HT29 colon; over 100 µM in the test with HOP-92 NSCLC; over 100 µM in the test with 786-0 renal; 47.8 µM in the test on SK-MEL-5 melanoma. Moreover, the TGI in the test with SK-MEL-2 melanoma is 99.6 µM; in the test with MOLT-4 leukemia, 39.8 µM.

With `CC1(c2cccc(N)c2)C2C(=O)NC(=O)C1C(=O)NC2=O` (configuration not stated), the TGI with A549 NSCLC was over 100 µM; in the test with HL-60(TB) leukemia, 43.2 µM; in the test with IGROV1 ovarian, over 100 µM; with HT29 colon, over 100 µM; in the test on HOP-92 NSCLC it was 57.3 µM; in the test with 786-0 renal it was over 100 µM. Further, the TGI in the test on SK-MEL-5 melanoma is 37 µM; in the test on SK-MEL-2 melanoma, 57.7 µM; with MOLT-4 leukemia, 47.6 µM.

Consider `Cc1cccc2nc3cccc(C(=O)NCCNCCNCCNC(=O)c4cccc5nc6cccc(C)c6nc45)c3nc12`, for which the GI50 in the test with HL-60(TB) leukemia is under 0.0139 µM; in the test on IGROV1 ovarian it was under 0.01 µM; in the test with HT29 colon, under 0.01 µM; in the test on HOP-92 NSCLC, under 0.0317 µM; in the test with 786-0 renal it was under 0.0333 µM; with SK-MEL-5 melanoma it was under 0.0131 µM. Besides, the GI50 in the test on SK-MEL-2 melanoma and in the test with MOLT-4 leukemia was under 0.01 µM throughout. Also, the TGI with HL-60(TB) leukemia was 1.12 µM; in the test on IGROV1 ovarian it was over 39.3 µM; in the test on HT29 colon, 0.254 µM; in the test with HOP-92 NSCLC, 0.519 µM; in the test with 786-0 renal, 7.74 µM; in the test on SK-MEL-5 melanoma, 0.851 µM. Also, the TGI was 0.186 µM in the test on SK-MEL-2 melanoma and 14.7 µM with MOLT-4 leukemia.

Take `C/C(=N\NS(=O)(=O)c1ccc(C)cc1)c1cc2ccccc2n1C`: the TGI in the test with A549 NSCLC, in the test with HL-60(TB) leukemia, with IGROV1 ovarian, in the test with HT29 colon, in the test with 786-0 renal and in the test with SK-MEL-5 melanoma was over 100 µM in each case. The TGI in the test with SK-MEL-2 melanoma and in the test with MOLT-4 leukemia was over 100 µM each time.

Regarding `CC(=O)[CH-]C(=O)c1ccccc1.CC(=O)[CH-]C(=O)c1ccccc1.CC1(C)OCC(C2OC3OC(C)(C)OC3C2[O-])O1.CC1(C)OCC(C2OC3OC(C)(C)OC3C2[O-])O1.[Ti+4]` (configuration not stated), the GI50 with A549 NSCLC was 15.3 µM; in the test on IGROV1 ovarian, 21.6 µM; with HT29 colon, 16.3 µM; in the test with HOP-92 NSCLC, 6.84 µM; with 786-0 renal, 11.8 µM; in the test with SK-MEL-2 melanoma, 7.49 µM. The GI50 in the test on MOLT-4 leukemia is 7.39 µM. Moreover, the TGI in the test with A549 NSCLC worked out at 38 µM; in the test with IGROV1 ovarian, 48.8 µM; in the test with HT29 colon it was 40.6 µM; with HOP-92 NSCLC, 22.8 µM; in the test on 786-0 renal it was 27.3 µM; with SK-MEL-2 melanoma, 25.5 µM. In the test on MOLT-4 leukemia, this compound gave a TGI of over 100 µM.

As to `N.N.O=P([O-])([O-])CN(CCN(CP(=O)([O-])[O-])CP(=O)([O-])[O-])CP(=O)([O-])[O-].[Pt+2]`, the GI50 in the test with A549 NSCLC, in the test on HL-60(TB) leukemia, with IGROV1 ovarian, in the test on HT29 colon, in the test with HOP-92 NSCLC and in the test with 786-0 renal was over 100 µM throughout. The GI50 in the test with SK-MEL-5 melanoma, with SK-MEL-2 melanoma and in the test with MOLT-4 leukemia was over 100 µM in each case. Besides, the TGI in the test with A549 NSCLC, in the test on HL-60(TB) leukemia, in the test on IGROV1 ovarian, in the test on HT29 colon, in the test with HOP-92 NSCLC and with 786-0 renal was over 100 µM each time. Also, the TGI in the test with SK-MEL-5 melanoma, in the test with SK-MEL-2 melanoma and in the test on MOLT-4 leukemia was over 100 µM throughout.

Consider `CCOC(=O)C1=C(C)N(Cc2ccccc2)C(=O)C1CC#N` (configuration not stated), for which the TGI with A549 NSCLC was over 100 µM; with HL-60(TB) leukemia it was 94.7 µM; in the test on IGROV1 ovarian, over 100 µM; with HT29 colon, over 100 µM; in the test with HOP-92 NSCLC it was 82.5 µM; in the test with 786-0 renal it was over 100 µM. Moreover, the TGI in the test on SK-MEL-2 melanoma and with MOLT-4 leukemia was over 100 µM throughout.

As to `CSc1nc2c(nc(N)n2C2OC(COC(C)=O)C(OC(C)=O)C(OC(C)=O)C2OC(C)=O)c(=O)n1C` (configuration not stated), the TGI in the test on A549 NSCLC, in the test on HL-60(TB) leukemia, with IGROV1 ovarian, in the test with HT29 colon, with HOP-92 NSCLC and in the test with 786-0 renal was over 100 µM in each case. Also, the TGI in the test on SK-MEL-5 melanoma, in the test on SK-MEL-2 melanoma and in the test on MOLT-4 leukemia was over 100 µM each time.

Turning to `CC(=O)[CH-]C(=O)c1ccccc1.CC(=O)[CH-]C(=O)c1ccccc1.CC[C@H](/C=C/C(C)[C@H]1CCC2[C@@H]3CC=C4C[C@@H]([O-])CC[C@]4(C)C3CC[C@@]21C)C(C)C.CC[O-].[Ti+4]` (some centres not stated), the GI50 in the test on A549 NSCLC is over 100 µM; with HL-60(TB) leukemia, over 100 µM; with IGROV1 ovarian, over 100 µM; in the test with HT29 colon, over 100 µM; in the test on HOP-92 NSCLC it was 95.3 µM; in the test on 786-0 renal it was over 100 µM. The GI50 in the test on SK-MEL-5 melanoma, in the test on SK-MEL-2 melanoma and in the test on MOLT-4 leukemia was over 100 µM each time. The TGI with A549 NSCLC, in the test with HL-60(TB) leukemia, with IGROV1 ovarian, with HT29 colon, in the test on HOP-92 NSCLC and with 786-0 renal was over 100 µM each time. For the same compound, the TGI with SK-MEL-5 melanoma, with SK-MEL-2 melanoma and in the test on MOLT-4 leukemia was over 100 µM each time.

As for `Cc1ccc(NC(=O)CC/C(CC(=O)C(C)(C)C)=N/NC(=O)C[N+](C)(C)C)cc1C`, the TGI with A549 NSCLC is 59.4 µM; with HL-60(TB) leukemia it was over 100 µM; with IGROV1 ovarian, over 100 µM; in the test with HT29 colon, over 100 µM; in the test with 786-0 renal, 52.9 µM; in the test with SK-MEL-5 melanoma, over 100 µM. For the same compound, the TGI in the test on SK-MEL-2 melanoma and in the test with MOLT-4 leukemia was over 100 µM each time.
